Literature values in US7179939B2, “Sodium ferric gluconate complexes and method of manufacture thereof” (priority 2004, dated 2007).

Substance: sodium ferric gluconate complex in sucrose
- reactions associated with administration (severity) (occur at a lower rate compared to iron dextran): mild to moderate
- occurrence of allergic episodes (study comparing iron dextran with sodium ferric gluconate): 3.3 allergic episodes per million doses
